Measurements as given in US20200165572A1, “ENGINEERED SUBSTRATES FOR HIGH-THROUGHPUT GENERATION OF 3D MODELS OF TUMOR DORMANCY, RELAPSE AND MICROMETASTASES FOR PHENOTYPE SPECIFIC DRUG DISCOVERY AND DEVELOPMENT” (Arizona Board of Regents on behalf of Arizona State …, priority 2015, published 2020).
Entries after “also recorded” stand apart in the source; their conditions may differ. Where two headings read alike, the source gives them in different places. Peptide text beside a SMILES is read from it. * marks the point of attachment. Cbz = O=C(OCc1ccccc1)*; CH2F = FC*

Tests used:
T24 bladder cancer cells = assay: Cell cycle analysis of T24 3DTMs; assay type: cell-based, human
Procedure: Following five days of incubation on AM3 Amikagels, 3DTMs of T24 cells with NIH3T3 murine fibroblast cells were harvested for cell cycle analysis. Four or five individual 3DTMs of T24 cells alone or UMUC3 cells alone were harvested on the 7th day after seeding on Amikagels, collected in an eppendorf tube. 50 μl of 5 mg/ml collagenase was added to 3DTMs prepared using fibroblast helper cells for 30 minutes at 37° C. in order to facilitate their disassembly by gentle pipetteing. Single cell 3DTMs were disassembled using manual pipetting. Disassembled 3DTM cells were then centrifuged at 200 r.c.f. in order to collect the cell pellet. The pellet was resuspended in a solution of 1% v/v 1× Triton-X, 5% (v/v) fetal bovine serum (FBS), 50 μg/mL propidium iodide, and 0.006-0.01 units/mL ribonuclease A. After incubation for 30 minutes on ice, cells were analyzed for their cell cycle profiles using flow cytometry; the propidum iodide (PI) signal was detected using an excitation at 535 nm and emission at 617 nm. Voltages of the FL2-A, SSC and FSC channels were adjusted in order to obtain best representative peaks for alignment of 2n (diploidy—G0/G1) peak to 200 intensity units during flow cytometry. FL2A (FL2-Area) provides the information regarding the pulse area of the emitted fluorescence signal (total cell fluorescence) whereas […] light from the sample. FSC is a measure of diffracted light from the sample proportional to cell surface area or size and SSC is proportional to cell granularity or internal complexity.

dormant T24 3DTMs [1] = assay: Escape from dormancy after transfer of T24 3DTMs from AM3 to AM1 Amikagel; assay type: cell-based, human; details: for microcolony formation: 100 μM pre-treatment, 15 days after transfer to AM1
Procedure: T24 3DTMs were first formed on AM3 Amikagels, and transferred to AM1 Amikagels on the seventh day following initial cell seeding, in order to investigate the role of chemo-mechanical properties of Amikagels on 3DTM fate, dormancy and escape from dormancy. Upon transfer, 3DTMs were monitored for cell spreading and motility on the gel for an additional 7 days. After 7 days, cell cycle analysis was carried out on the all 3DTMs as described in the previous sections.
Long-term experiments were also carried out where 3DTMs were continuously monitored for 15 days after their tranfer from AM3 gel to AM1 gel. In order to study the effect of drug treatment, T24 3DTMs were first treated with 0-100 μM docetaxel for 96 hours after 7 days of initial seeding of cells on AM3 gel. After 96 hours of this drug treatment, the 3DTMs were transferred to AM1 gel to study how different chemo-mechanical properties influenced escape from dormancy. Similar studies were also performed using ROCK inhibitor Y-27632 (20 μM).

NIH3T3-T24 3DTMs = assay: Drug efficacy on NIH3T3-T24 3DTM viability; assay type: cell-based, human, murine
Procedure: After three important tumor phenotypes were captured on Amikagels, we used Amikagel-3DTM platform for high throughput drug screens against those specific phenotypes. T24 (alone), and NIH3T3-T24 3DTMs were exposed to different doses of the DNA-damaging drug, mitoxantrone (31) or the microtubule-stabilizing drug, docetaxel for 96 hours (32). Co-culture 3DTMs were treated with collagenase to allow their disassembly before cell-viability measurement. It was noticed that collagenase treatment enabled very easy diassembly of the co-culture 3DTMs, supporting our previous finding of ECM production.

CHOP = CHOP expression by western blotting; assay type: cell-based, human; details: calcimycin 0.5-μM
Procedure: […] The lysates were then sonicated thrice for 10-15 seconds on ice and collected by centrifugation (16,000 rpm, 20 minutes, 4° C.). Supernatants containing the whole cell protein were stored at −20° C. for subsequent use.
BCA assay was used to quantify the total protein content of the cell lysates. Equivalent quantities of whole cell proteins (4 μg) were combined with 2× Laemmli buffer containing 5% β-mercaptoethanol, and were heat denatured for 5 minutes at 95° C. Equal amounts of protein (4 μg) were then loaded into to the wells of pre-cast gels and run for 35 minutes at 200 V in running buffer (25 mM Tris, […], and 0.1% SDS, pH=8.3). The proteins were transferred to a methanol-activated Hybond PVDF membrane for 30 minutes at 20 V in the transfer buffer (25 mM Tris, 190 mM glycine, and 20% methanol, pH=8.3). The Hybond PVDF membrane was rinsed with 1×PBST and blocked with 3% blocking buffer 3× for 5 minutes each. The membrane was then incubated with the primary antibody for 12 hours at 4° C. (1:1000 CHOP D46F1 Rabbit mAb primary antibody) and (1:5000 f-actin Rabbit Ab primary antibody). […]
Area of the proteins actin and CHOP on the […] membranes were measured using image-J software. The CHOP proteins from treatment samples were then normalized to their actin content and expressed which was further expressed as a percentage of the live control.

dormant 3DTMs = assay: Intracellular calcium imaging; assay type: cell-based, human; details: 3-hour treatment
Procedure: Dormant 3DTMs grown on AM3 Amikagels were treated with calcimycin (0.5 and 5 μM) with calcium (5 mM) and calcium liposomes (175 μM) for 3 hours (3 dormant 3DTMs each). Following 3 hours, the 3DTMs were disassembled using rapid pipetting and cells were collected by centrifugation. The cells were washed with 1×PBS and resuspended in 50 μL cell culture media+50 μL Fluo-4 dye solution (prepared as per vendor's recommendation). After incubation for 60 minutes, the cells were imaged at excitation: 494 nm, emission: 516 nm. Green color fluorescence was used as an indicator of intracellular calcium concentration. Intracellular calcium fluorescence was quantified using imageJ.

dormant T24 3DTMs [2] = details: for effect of pan-caspase inhibition on thapsigargin-bortezomib induced cell death: dormant T24 spheroids
Procedure: (§1) Different concentrations (12.5, 25, 50 and 100 μM) of the anticancer drugs docetaxel, (10-40 μM) mitoxantrone, or (250-500 μM) thioTEPA were added to 3DTMs formed after 5-7 days of initial cell seeding on Amikagel. Drugs were added to 3DTMs of T24 cells co-cultured with NIH3T3 murine fibroblasts on day 5, but added to 3DTMs of T24 cells alone on day 7 due to the different times required for their formation After 96 hours of drug exposure, 3DTMs were disassembled using 50 μl of 5 mg/ml collagenase for 20 minutes to allow disassembly for co-culture spheroids, and cell viability was assessed by Live/Dead® staining followed by flow cytometry. 3DTM viability was also measured using MTT/XTT assay as described previously [28]. […] A calcium concentration of 5 mM was used with calcimycin ionophore of different concentrations (0.1, 0.5, 1, 5 and 10 μM) were used to induce cell death. Calcium liposomes were also added at a concentration of 175 μM to the dormant cells.
(§2) Viability of 3DTMs was also determined using the Live-Dead® (Calcein AM-Ethidium homodimer) staining assay. Fresh serum free DMEM media, containing a final concentration of 1 μM of calcein AM and 2 μM of ethidium homodimer-1 (EthD-1), was added to the 3DTMs, and fluorescence imaging was carried out using a Zeiss fluorescence microscope after incubating the reagents for 20 minutes. Green fluorescence emission of calcein-AM inside the live cells was detected using 38 HE filter set (Excitation: 470/40; Emission: 525/50) and red fluorescence of nucleic acid bound-EthD-1 was detected using a 43 HE filter set (Excitation: 550/25; Emission: 605/70). The extent of red and green fluorescence were indicative of the extent of viable and dead cells, respectively, in the 3DTM.
(§3) To quantify the percent dead cells using flow cytometer following drug treatment, 3DTMs were disassembled using collagenase as described previously (whenever necessary). Disassembled cells were suspended in 1×PBS containing a final concentration of 1 μM of Calcein AM and 2 μM of Ethidium Homodimer-1 (EthD-1). After incubating for 20 minutes, fluorescence images were collected as described in previous sections. Cell viability was further quantified using flow cytometry on the same sample using BD FACSAria™ III. Red fluorescence of EthD-1 was detected using a 43 HE filter set (Excitation: 550/25; Emission: 605/70).

dormant T24 3DTMs [3] = assay: cells; details: Homo sapiens, 24 h, read-out: LC50
Procedure: as §1, §2, §3

T24 cells in 2D culture [4] = assay: cells; assay type: cell-based; details: Homo sapiens, T-24, 96 h, read-out: LC50
Procedure: Cell death (%) after exposure of 5000 T24 cells to docetaxel for 96 hours after 2D cell culture measured by using MTT assay (circles).

T24 cells in 2D culture [5] = details: cited from earlier work

C[C@@H](N)[C@H]1CC[C@H](C(=O)Nc2ccncc2)CC1 [Amikagel Y-27632, Y-27632]
cell cycle profile of dormant cells on AM3 gels (T24 bladder cancer cells; 20-μM, 96 hours): did not observe any changes in the cell cycle profile | cell escape from mother spheroid (dormant T24 3DTMs [1]; 20-μM for 96 hours on AM3 gel, then transfer to AM1 gel): increase in the number of cells escape

S=P(N1CC1)(N1CC1)N1CC1 [ThioTEPA]
response of NIH3T3-T24 3DTMs (NIH3T3-T24 3DTMs; up to a concentration as high as 500 μM): resistant

CNc1ccc2oc(C[C@H]3O[C@@]4(CC[C@H]3C)O[C@H]([C@H](C)C(=O)c3ccc[nH]3)[C@H](C)C[C@H]4C)nc2c1C(=O)O [calcimycin]
CHOP protein expression (CHOP): No CHOP protein expression | intracellular calcium fluorescence compared to DMSO control (dormant 3DTMs): significantly higher | cell death dose response (dormant T24 3DTMs [2]; 24-hour time point): concentration dependent cell death | CC50 (dormant T24 3DTMs [3]): ~10 µM

[Ca+2].[Cl-].[Cl-] [calcium, calcium chloride]
intracellular calcium fluorescence compared to DMSO control (dormant 3DTMs): significantly higher | impact on dormant cell viability (dormant T24 3DTMs [2]; free calcium in cell culture media 40 mM, 96 hours): minimal impact on dormant cell viability

CC(=O)O[C@@]12CO[C@@H]1C[C@H](O)[C@@]1(C)C(=O)[C@H](O)C3=C(C)[C@@H](OC(=O)[C@H](O)[C@@H](NC(=O)OC(C)(C)C)c4ccccc4)C[C@@](O)([C@@H](OC(=O)c4ccccc4)[C@H]21)C3(C)C [docetaxel]
cells in G2/M phase of treated dormant T24 3DTMs (T24 bladder cancer cells; drug-treated dormant T24 3DTMs): did not change the number of cells in G2/M phase | cells in pre G0/G1 phase of treated dormant T24 3DTMs (T24 bladder cancer cells; drug-treated dormant T24 3DTMs): increase in the number of cells in the pre G0/G1 phase | CC50 (T24 cells in 2D culture [4]): 10 µM | cell escape from mother 3DTM (dormant T24 3DTMs [1]; 12.5 μM-100 μM for 96 hours on AM3, then transfer to AM1): significantly reduced the number of cells escaping; also recorded: significantly lesser number of cells escaped | microcolony formation (dormant T24 3DTMs [1]): drastically reduced | microcolony formation (dormant T24 3DTMs [1]; listed as Docetaxel): inhibited microcolony formation | cell death (dormant T24 3DTMs [2]; 100 μM, 96 hours, compared to live control): ~10% | effect on cell viability of T24 3DTMs (dormant T24 3DTMs [2]; different doses, 96 hours of exposure, listed as Docetaxel): did not have any impact on the cell viability

O=C1c2c(O)ccc(O)c2C(=O)c2c(NCCNCCO)ccc(NCCNCCO)c21 [mitoxantrone]
response of NIH3T3-T24 3DTMs (NIH3T3-T24 3DTMs; doses as high as 80 μM, 96 hours): resistant | CC50 (T24 cells in 2D culture [5]): ~9 µM

C/C=C(/C)C(=O)O[C@H]1C(C)=C2[C@H]([C@@H]1OC(=O)CCCCCCC)[C@@](C)(OC(C)=O)C[C@H](OC(=O)CCC)[C@@]1(O)[C@H]2OC(=O)[C@@]1(C)O [thapsigargin]
cell death (dormant T24 3DTMs [2]; single agent, 15-μM, 96 hour treatment): 50%

COC(=O)C[C@H](NC(=O)[C@H](C)NC(=O)[C@@H](NC(=O)OCc1ccccc1)C(C)C)C(=O)CF [zVAD-fmk] (Cbz-Val-Ala-Asp(OMe)-CH2F)
effect of pan-caspase inhibition on calcimycin-induced death (dormant T24 3DTMs [2]; 24-hour, 10-μM or 5-μM calcimycin, 5 mM calcium, 5-μM zVAD-fmk): did not rescue | effect of pan-caspase inhibition on thapsigargin-bortezomib induced cell death (dormant T24 3DTMs [2]; 96 hours): reversed | effect of pan-caspase inhibition on thapsigargin-bortezomib induced cell death (dormant T24 3DTMs [2]; 96 hours, listed as z-VAD-fmk): significantly rescued
